Data as given in ChEMBL document CHEMBL5441381, “ASAP - In vitro antiviral effect” (2024).

How the values were obtained:
[1] = tested on: SARS-CoV-2; test: (§1) Functional immunofluorescence assay to measure dose dependent changes in antiviral-drug inhibitory efficacy against hCoV-19/USA-WA1/2020 in HeLa-ACE2 cells which are seeded prior to drug treatment, then infected with hCoV-19/USA-WA1/2020. Cells are fixed with 10 % formaldehyde, washed with PBS, permeabilized with permeabilization buffer, then washed with wash buffer. The cells are incubated with nucleoprotein primary antibody IC7C7. Following primary staining, cells are washed with wash buffer and incubated in a solution of with Alexa fluor 488 and DAPI. Infected and uninfected cells are visualized and analyzed by Gen5 software. The assay has been performed by Icahn School of Medicine at Mount Sinai.; format: organism-based, Homo sapiens
[2] = tested on: SARS-CoV-2; test: as §1, with “iPSC-Pneumocyte” for “HeLa-ACE2”, “to” for “to drug”; format: organism-based, Homo sapiens; settings: Severe acute respiratory syndrome coronavirus 2, Pneumocyte; for EC90: Baseline response 0 %, Maximum response 100 %
[3] = Severe acute respiratory syndrome coronavirus 2, HeLa-ACE2

CC(C)[C@@H](Nc1ncnc2[nH]c(-c3cnn(C)c3)cc12)c1ccc2c(c1)S(=O)(=O)CCC2
EC50 [1, 3]: > 20 µM
EC90 ([1]; Severe acute respiratory syndrome coronavirus 2, HeLa-ACE2, Baseline response 0 %, Hill slope -10.363, Maximum measured 119.22 %, Maximum response 100 %, Minimum measured 72.714 %, R squared 0.37): > 20 µM
EC50 [2]: 7.59 µM
EC90 ([2]; Hill slope -0.905, Maximum measured 103.795 %, Minimum measured 0.206 %, R squared 0.828): > 50 µM

Cc1ncc(-c2cc3c(N[C@@H](c4ccc5c(c4)OCCO5)C(C)C)ncnc3[nH]2)cn1
EC50 [1, 3]: 4.51 µM
EC90 ([1]; Severe acute respiratory syndrome coronavirus 2, HeLa-ACE2, Baseline response 0 %, Hill slope -0.659, Maximum measured 95.537 %, Maximum response 100 %, Minimum measured 29.329 %, R squared 0.973): > 20 µM
EC90 ([1]; Severe acute respiratory syndrome coronavirus 2, HeLa-ACE2, Baseline response 0 %, Hill slope -1.195, Maximum measured 100.014 %, Maximum response 100 %, Minimum measured 14.25 %, R squared 0.982): > 20 µM
EC50 ([1]; hela-ace2): 4.51 µM
EC50 [2]: 15.7 µM
EC90 ([2]; EC90 CI (lower) 1.051 uM, EC90 CI (upper) 45.178 uM, Hill slope -2.659, Maximum measured 160.084 %, Minimum measured 9.251 %, R squared 0.626): 36 µM

CC(C)[C@@H](Nc1ncnc2[nH]c(-c3cnn(CC(N)=O)c3)cc12)c1ccc2c(n1)OCCO2
EC50 [1, 3]: > 20 µM
EC90 ([1]; Severe acute respiratory syndrome coronavirus 2, HeLa-ACE2, Maximum measured 122.738 %, Minimum measured 101.22 %): > 20 µM
EC50 [2]: > 50 µM
EC90 ([2]; Hill slope -0.097, Maximum measured 94.962 %, Minimum measured 56.467 %, R squared 0.078): > 50 µM

CNC(=O)Cn1cc(-c2cc3c(N[C@H](c4ccc5c(c4)S(=O)(=O)CCC5)C(C)C)ncnc3[nH]2)cn1
EC50 [1, 3]: > 20 µM
EC90 ([1]; Severe acute respiratory syndrome coronavirus 2, HeLa-ACE2, Baseline response 0 %, Hill slope 0.543, Maximum measured 108.143 %, Maximum response 100 %, Minimum measured 92.194 %, R squared 0.052): > 20 µM
EC50 [2]: > 50 µM
EC90 ([2]; Hill slope -0.24, Maximum measured 106.027 %, Minimum measured 60.326 %, R squared 0.31): > 50 µM

CC(C)(C)[C@@H](Nc1ncnc2[nH]c(-c3cnn(CC(N)=O)c3)cc12)c1ccc2c(n1)OCCO2
EC50 [1, 3]: > 20 µM
EC90 ([1]; Severe acute respiratory syndrome coronavirus 2, HeLa-ACE2, Maximum measured 115.43 %, Minimum measured 93.464 %): > 20 µM
EC50 [2]: 11.4 µM
EC90 ([2]; Hill slope -0.772, Maximum measured 91.919 %, Minimum measured 11.328 %, R squared 0.786): > 50 µM

CC(C)[C@@H](Nc1ncnc2[nH]c(C(N)=O)cc12)c1ccc2c(c1)OCCO2
EC50 [1, 3]: > 20 µM
EC90 ([1]; Severe acute respiratory syndrome coronavirus 2, HeLa-ACE2, Maximum measured 95.443 %, Minimum measured 3.395 %): > 20 µM
EC90 ([1]; Severe acute respiratory syndrome coronavirus 2, HeLa-ACE2, Maximum measured 108.483 %, Minimum measured 88.736 %): > 20 µM
EC50 [2]: > 50 µM
EC90 ([2]; Hill slope -3.392, Maximum measured 162.718 %, Minimum measured 51.066 %, R squared 0.094): > 50 µM

CC(C)[C@@H](Nc1ncnc2[nH]c(-c3cnn(C)c3C#N)cc12)c1ccc2c(c1)S(=O)(=O)CCC2
EC50 [1, 3]: 3.51 µM
EC90 ([1]; Severe acute respiratory syndrome coronavirus 2, HeLa-ACE2, Baseline response 0 %, EC90 CI (lower) 0.517 uM, EC90 CI (upper) 1.693 uM, Hill slope -1.661, Maximum measured 114.163 %, Maximum response 100 %, Minimum measured 4.545 %, R squared 0.935): 13.2 µM
EC50 [2]: 0.411 µM
EC90 ([2]; EC90 CI (lower) 0.002 uM, EC90 CI (upper) 0.075 uM, Hill slope -0.637, Maximum measured 75.192 %, Minimum measured 0.111 %, R squared 0.781): 13 µM

CC(C)[C@@H](Nc1ncnc2[nH]c(-c3cnn(C)n3)cc12)c1ccc2c(c1)OCCO2
EC50 [1, 3]: 5.33 µM
EC90 ([1]; Severe acute respiratory syndrome coronavirus 2, HeLa-ACE2, Baseline response 0 %, Hill slope -0.7, Maximum measured 92.76 %, Maximum response 100 %, Minimum measured 27.109 %, R squared 0.91): > 20 µM
EC90 ([1]; Severe acute respiratory syndrome coronavirus 2, HeLa-ACE2, Baseline response 0 %, Hill slope -0.882, Maximum measured 101.658 %, Maximum response 100 %, Minimum measured 24.481 %, R squared 0.934): > 20 µM
EC50 ([1]; hela-ace2): 6.65 µM
EC50 [2]: 13.3 µM
EC90 ([2]; EC90 CI (lower) 0.166 uM, EC90 CI (upper) 294.285 uM, Hill slope -3.414, Maximum measured 157.709 %, Minimum measured 4.934 %, R squared 0.471): 25.3 µM

CC(C)[C@@H](Nc1ncnc2[nH]c(-c3cnn(CC(N)=O)c3)cc12)c1ccc2c(c1)OCCO2
EC50 [1, 3]: > 50 µM
EC90 ([1]; Severe acute respiratory syndrome coronavirus 2, HeLa-ACE2, Baseline response 0 %, Hill slope -10.038, Maximum measured 122.799 %, Maximum response 100 %, Minimum measured 73.654 %, R squared 0.191): > 50 µM
EC50 [2]: 37.1 µM
EC90 ([2]; Hill slope -4.011, Maximum measured 96.462 %, Minimum measured 23.083 %, R squared 0.242): > 50 µM
